These results are taken from the supplement of paper PMC10307832.

Holding throughout (test): relative viability (nuclei count vs DMSO), 5 days (fraction); higher = more cells survive
Compound in assay [1]: Cc1nc(NC(=O)N2CCC[C@H]2C(N)=O)sc1-c1ccnc(C(C)(C)C(F)(F)F)c1 [Alpelisib] + O=C(CCCCCCC(=O)Nc1ccccc1)NO [Vorinostat] (partner 1 µM)
A digest of the protocol: (§1)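 Relative viability was taken as the ratio of nuclei in treated wells to nuclei in vehicle wells. Lung cancer cell lines in 1536-well plates received compounds by pin tool one day after seeding, either one drug alone or a fixed anchor-drug dose plus five library-drug doses (not always all listed) in √10 steps. Nuclei were counted on 4× images after 5 days of treatment, and values are medians of duplicate plates.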

Compound in assay [2]: Cc1nc(NC(=O)N2CCC[C@H]2C(N)=O)sc1-c1ccnc(C(C)(C)C(F)(F)F)c1 [Alpelisib] + CCNC(=O)c1noc(-c2cc(C(C)C)c(O)cc2O)c1-c1ccc(CN2CCOCC2)cc1 [Luminespib] (partner 0.01 µM)
A digest of the protocol:
as §1

Compound in assay [3]: COc1cccc2cc(-c3nc([C@H]4CC[C@H](C(=O)O)CC4)n4ncnc(N)c34)[nH]c12 [OSI-027] + NC(=O)Nc1cc(-c2cccc(F)c2)sc1C(=O)N[C@H]1CCCNC1 [AZD7762] (partner 0.2 µM)
A digest of the protocol:
as §1

Compound in assay [4]: CCCS(=O)(=O)Nc1ccc(F)c(C(=O)c2c[nH]c3ncc(-c4ccc(Cl)cc4)cc23)c1F [Vemurafenib] + C[C@]1(O)C[C@@H](c2nc(-c3ccc4ccc(-c5ccccc5)nc4c3)c3c(N)nccn32)C1 [Linsitinib] (partner 1 µM)
A digest of the protocol: as §1

As to NCI-H460, the relative viability came out at 0.717 in assay [1] (first compound 0.04 µM); 0.788 in assay [1] (first compound 0.1265 µM); 0.938 in assay [1] (first compound 0.4 µM); 0.564 in assay [1] (first compound 1.265 µM); 0.434 in assay [1] (first compound 4 µM); 0.0253 in assay [2] (first compound 0.04 µM). Further, the relative viability in assay [2] (first compound 0.1265 µM) stood at 0.0415; in assay [2] (first compound 0.4 µM), 0.0319; in assay [2] (first compound 1.265 µM), 0.0281; in assay [2] (first compound 4 µM), 0.0206; in assay [3] (first compound 0.01 µM), 0.731; in assay [3] (first compound 0.03162 µM) it was 0.668. Further, the relative viability in assay [3] (first compound 0.1 µM) worked out at 0.473; in assay [3] (first compound 0.3162 µM), 0.548; in assay [3] (first compound 1 µM) it was 0.336; in assay [4] (first compound 0.03162 µM) it was 0.677; in assay [4] (first compound 0.1 µM) it was 0.839; in assay [4] (first compound 0.3162 µM) it was 0.879. Further, in assay [4] (first compound 1 µM), the relative viability was 0.777.
In the case of NCI-H596, the relative viability in assay [1] (first compound 0.04 µM) came to 0.484; in assay [1] (first compound 0.1265 µM) it was 0.837; in assay [1] (first compound 0.4 µM), 0.629; in assay [1] (first compound 1.265 µM), 0.328; in assay [1] (first compound 4 µM), 0.267; in assay [2] (first compound 0.04 µM), 0.832. Further, the relative viability in assay [2] (first compound 0.1265 µM) stood at 0.884; in assay [2] (first compound 0.4 µM), 0.87; in assay [2] (first compound 1.265 µM), 0.599; in assay [2] (first compound 4 µM), 0.424; in assay [3] (first compound 0.01 µM) it was 1.14; in assay [3] (first compound 0.03162 µM) it was 1.08. Further, the relative viability in assay [3] (first compound 0.1 µM) is 1.08; in assay [3] (first compound 0.3162 µM) it was 1.06; in assay [3] (first compound 1 µM), 0.943; in assay [4] (first compound 0.03162 µM) it was 1.07; in assay [4] (first compound 0.1 µM) it was 0.918; in assay [4] (first compound 0.3162 µM), 1.12. In assay [4] (first compound 1 µM), the relative viability is 1.06.
For the cell line NCI-H647, the relative viability in assay [1] (first compound 0.04 µM) amounted to 0.772; in assay [1] (first compound 0.1265 µM), 0.608; in assay [1] (first compound 0.4 µM), 0.613; in assay [1] (first compound 1.265 µM), 0.263; in assay [1] (first compound 4 µM) it was 0.427; in assay [2] (first compound 0.04 µM) it was 0.256. Further, the relative viability came to 0.203 in assay [2] (first compound 0.1265 µM); 0.157 in assay [2] (first compound 0.4 µM); 0.117 in assay [2] (first compound 1.265 µM); 0.168 in assay [2] (first compound 4 µM); 0.402 in assay [3] (first compound 0.01 µM); 0.558 in assay [3] (first compound 0.03162 µM). Besides, the relative viability in assay [3] (first compound 0.1 µM) worked out at 0.362; in assay [3] (first compound 0.3162 µM), 0.314; in assay [3] (first compound 1 µM), 0.348; in assay [4] (first compound 0.03162 µM), 1.08; in assay [4] (first compound 0.1 µM), 0.971; in assay [4] (first compound 0.3162 µM) it was 1.03. Besides, in assay [4] (first compound 1 µM), the relative viability worked out at 1.14.
As to NCI-H650, the relative viability in assay [1] (first compound 0.04 µM) worked out at 0.394; in assay [1] (first compound 0.1265 µM), 0.314; in assay [1] (first compound 0.4 µM) it was 0.538; in assay [1] (first compound 1.265 µM), 0.35; in assay [1] (first compound 4 µM) it was 0.325; in assay [2] (first compound 0.04 µM), 0.752. In addition, the relative viability was 0.744 in assay [2] (first compound 0.1265 µM); 0.985 in assay [2] (first compound 0.4 µM); 0.559 in assay [2] (first compound 1.265 µM); 0.664 in assay [2] (first compound 4 µM); 0.925 in assay [3] (first compound 0.01 µM); 1.06 in assay [3] (first compound 0.03162 µM). In addition, the relative viability worked out at 0.955 in assay [3] (first compound 0.1 µM); 0.902 in assay [3] (first compound 0.3162 µM); 0.375 in assay [3] (first compound 1 µM); 0.709 in assay [4] (first compound 0.03162 µM); 0.83 in assay [4] (first compound 0.1 µM); 0.297 in assay [4] (first compound 0.3162 µM). In addition, the relative viability in assay [4] (first compound 1 µM) was 0.595.
Regarding NCI-H727, the relative viability in assay [1] (first compound 0.04 µM) stood at 1.1; in assay [1] (first compound 0.1265 µM) it was 1.2; in assay [1] (first compound 0.4 µM), 1.07; in assay [1] (first compound 1.265 µM), 1.06; in assay [1] (first compound 4 µM), 0.848; in assay [2] (first compound 0.04 µM) it was 0.419. In addition, the relative viability came out at 0.444 in assay [2] (first compound 0.1265 µM); 0.3 in assay [2] (first compound 0.4 µM); 0.371 in assay [2] (first compound 1.265 µM); 0.345 in assay [2] (first compound 4 µM); 0.557 in assay [3] (first compound 0.01 µM); 0.568 in assay [3] (first compound 0.03162 µM). The relative viability in assay [3] (first compound 0.1 µM) amounted to 0.41; in assay [3] (first compound 0.3162 µM), 0.576; in assay [3] (first compound 1 µM), 0.546; in assay [4] (first compound 0.03162 µM) it was 0.265; in assay [4] (first compound 0.1 µM), 0.281; in assay [4] (first compound 0.3162 µM), 0.415. The relative viability in assay [4] (first compound 1 µM) worked out at 0.394.
For NCI-H838, the relative viability in assay [1] (first compound 0.04 µM) was 0.675; in assay [1] (first compound 0.1265 µM), 0.697; in assay [1] (first compound 0.4 µM), 0.72; in assay [1] (first compound 1.265 µM) it was 0.642; in assay [1] (first compound 4 µM), 0.606; in assay [2] (first compound 0.04 µM), 0.429. Also, the relative viability turned out to be 0.387 in assay [2] (first compound 0.1265 µM); 0.274 in assay [2] (first compound 0.4 µM); 0.221 in assay [2] (first compound 1.265 µM); 0.299 in assay [2] (first compound 4 µM); 0.923 in assay [3] (first compound 0.01 µM); 0.838 in assay [3] (first compound 0.03162 µM). In addition, the relative viability in assay [3] (first compound 0.1 µM) stood at 0.855; in assay [3] (first compound 0.3162 µM) it was 0.806; in assay [3] (first compound 1 µM) it was 0.801; in assay [4] (first compound 0.03162 µM), 0.979; in assay [4] (first compound 0.1 µM), 1.01; in assay [4] (first compound 1 µM), 1.14.
For NCI-H1355, the relative viability in assay [1] (first compound 0.04 µM) came to 0.626; in assay [1] (first compound 0.1265 µM) it was 0.609; in assay [1] (first compound 0.4 µM) it was 0.677; in assay [1] (first compound 1.265 µM), 0.529; in assay [1] (first compound 4 µM) it was 0.398; in assay [2] (first compound 0.04 µM) it was 0.679. The relative viability in assay [2] (first compound 0.1265 µM) came out at 0.575; in assay [2] (first compound 0.4 µM), 0.83; in assay [2] (first compound 1.265 µM) it was 0.608; in assay [2] (first compound 4 µM), 0.514; in assay [3] (first compound 0.01 µM), 0.703; in assay [3] (first compound 0.03162 µM) it was 0.88. The relative viability was 0.753 in assay [3] (first compound 0.1 µM); 0.628 in assay [3] (first compound 0.3162 µM); 0.38 in assay [3] (first compound 1 µM); 0.713 in assay [4] (first compound 0.03162 µM); 0.709 in assay [4] (first compound 0.1 µM); 0.801 in assay [4] (first compound 0.3162 µM). In addition, the relative viability in assay [4] (first compound 1 µM) worked out at 0.758.
Take NCI-H1395: the relative viability turned out to be 0.742 in assay [1] (first compound 0.04 µM); 0.565 in assay [1] (first compound 0.1265 µM); 0.773 in assay [1] (first compound 0.4 µM); 0.62 in assay [1] (first compound 1.265 µM); 0.537 in assay [1] (first compound 4 µM); 0.568 in assay [2] (first compound 0.04 µM). The relative viability was determined as 0.663 in assay [2] (first compound 0.1265 µM); 0.755 in assay [2] (first compound 0.4 µM); 0.604 in assay [2] (first compound 1.265 µM); 0.724 in assay [2] (first compound 4 µM); 0.316 in assay [3] (first compound 0.01 µM); 0.398 in assay [3] (first compound 0.03162 µM). For the same cell line, the relative viability in assay [3] (first compound 0.1 µM) amounted to 0.396; in assay [3] (first compound 0.3162 µM), 0.352; in assay [3] (first compound 1 µM), 0.386; in assay [4] (first compound 0.03162 µM), 0.948; in assay [4] (first compound 0.1 µM) it was 1.02; in assay [4] (first compound 1 µM) it was 1.13.
